Measurements published in patent publication EP0314528B1, “Article for the controlled release and delivery of substances to animal tissues” (HERCON LABORATORIES CORPORATION, priority 1987, dated 1989).

Tests used:
[1] = test system: human subject previously sensitized to clonidine; experiment: Contact allergic dermatitis to clonidine patches with incorporated fluocinonide, sensitized subject; type: in vivo; conditions: 2% fluocinonide incorporated in the clonidine patch
Description: (§1) The Grading System for this example is as follows: +/- faint, or spotty, pink color within test site; 1 uniform pink color covering all of test site; 2 uniform pink to red color covering all of test site; 3 uniform bright red color covering all of test site; 4 uniform bright red color covering all of test side with edema, blisters, or weeping.
(§2) Objective - To block the contact allergic dermatitis which occurs following application of clonidine patches to the skin through incorporation of fluocinonide in the patches. Materials - One formulation of the anti-hypertensive drug clonidine was used in which either 0% or 2% fluocinonide was incorporated. A second formulation containing no clonidine was also tested. Thus, the following formulations were prepared: […]
Methods - Two patches containing clonidine and either 0% or 2% fluocinonide were applied to the upper back of a single human subject previously sensitized to clonidine. A third patch containing no clonidine and no fluocinonide was also applied as a placebo. The patches were removed after 7 days and the sites read immediately and on the 8th day as well. […]

[2] = test system: human subject previously sensitized to fluphenazine; experiment: Contact allergic dermatitis to fluphenazine patches with incorporated fluocinonide, sensitized subject; type: in vivo; conditions: 1% or 5% fluocinonide incorporated in the fluphenazine patch
Description: as §1
Objective - To block contact dermatitis observed following application of fluphenazine patches to the skin through incorporation of fluocinonide in the patch. Materials - One formulation of the anti-psychotic drug fluphenazine was used in which either 0%, 1% or 5% fluocononide was incorporated. Thus, the following formulations were prepared: […]
Methods - Three patches containing fluphenazine and fluocinonide at either 0%, 1% or 5% of fluocinonide were applied to the upper arm of a single human subject previously sensitized to fluphenazine. The patches were removed at 48 hours and the sites observed for signs of allergic dermatitis immediately and at 72 and 96 hours. […]

[3] = test system: human subject previously sensitized to trifluoperazine; experiment: Contact allergic dermatitis to trifluoperazine patches with incorporated fluocinonide, sensitized subject; type: in vivo; conditions: 2% fluocinonide incorporated in the trifluoperazine patch
Description: as §1
as §2, with “trifluoperazine” for “clonidine”, “through the” for “through”, “tranquilizer” for “anti-hypertensive”, “incorporated.” for “incorporated. A second formulation containing no clonidine was also tested.”
Methods - Two patches containing trifluoperazine and either 0% or 2% fluocinonide were applied to the upper arm of a single human subject previously sensitized to trifluoperazine. The patches were removed after two days and the sites read immediately and 24 and 48 hours later as well. […]

human subject [4] = experiment: Contact irritant dermatitis to RO 22-1327 patches with incorporated fluocinonide; type: in vivo; conditions: 1.0% fluocinonide incorporated into the RO 22-1327 patch
Description: as §1
Objective - To block the contact irritant dermatitis observed following application of RO 22-1327 patches to the skin through the incorporation of fluocinonide in the patch. Materials - One formulation of the antihypertensive drug RO 22-1327 was used, in which either 0%, 0.1%. 1.0% or 5% fluocinonide was incorporated. Methods - Four patches containing RO 22-1327 and fluocinonide at either 0%, 0.1%, 1.0%. or 5.0% were applied to the upper arms (two per arm) of a single human subject not previously exposed to this drug. The patches were removed at 8 hours and the sites observed for signs of dermatitis immediately and 16 hours later. In a second test. one RO 22-1327 patch containing 1.0% fluocinonide was applied to the upper arm of the same human subject as above and removed after 24 hours. The site was examined immediately for signs of dermatitis.

guinea pig skin = conditions: compared with indomethacin; cited from earlier work
rat footpad = conditions: applied topically to rat footpad; cited from earlier work
cyclooxygenase = conditions: cited from earlier work
prostaglandin E2 = conditions: cited from earlier work
leukotriene C4 = conditions: cited from earlier work
human subject [5] = experiment: Contact irritant dermatitis to guanfacine patches with incorporated hydrocortisone; type: in vivo; conditions: 23 hour and 1 week observation
Description: as §1
Objective - To block the contact irritant dermatitis observed following application of guanfacine patches to the skin through the incorporation of hydrocortisone in the patch. Materials - Two formulations of the antihypertensive drug guanfacine were used in this study. Into each was incorporated hydrocortisone at either 0.5% or 2.0%. Control patches containing no hydrocortisone were also used. Thus, the following formulations were prepared: […]
(To make the 0.5% hydrocortisone formulations, 20 mg hydrocortisone was added to 4 grams of the above formulations. To make 2.0% hydrocortisone formulations, 80 mg of hydrocortisone was added to 4 grams of the above two formulations). Methods - Three patches of each of the two guanfacine formulations, containing either 0%, 0.5% or 2.0% hydrocortisone, were applied to the upper arm of a single human subject not previously exposed to this drug. The patches were removed after 23 hours and the sites observed for signs of dermatitis. One week later, the sites were again observed.

CC(=O)OCC(=O)[C@@]12OC(C)(C)O[C@@H]1C[C@H]1[C@@H]3C[C@H](F)C4=CC(=O)C=C[C@]4(C)[C@@]3(F)[C@@H](O)C[C@@]12C [fluocinonide]
allergic reaction (erythema and blistering) caused by clonidine [1]: significantly reduced
allergic reaction (erythema and blistering) caused by fluphenazine [2]: almost completely blocked
magnitude of the allergic reaction (erythema and blistering) caused by trifluoperazine [3]: significantly reduced
irritant dermatitis associated with the use of RO 22-1327 (human subject [4]): significant reduction

COc1cc(-c2nc3ncccc3o2)cc(C(C)(C)C)c1 [2-(3-(1,1-dimethylethyl)5-methoxyphenyl-oxazolo(4,5-b)pyridine]
inhibiting ultra-violet light-induced erythema (guinea pig skin): as potent as indomethacin
analgesic effect (rat footpad): effective analgesic
cyclooxygenase inhibition (cyclooxygenase): inhibitor
inhibition of prostaglandin E2 synthesis (prostaglandin E2): inhibitor
inhibition of leukotriene C4 synthesis (leukotriene C4): not

C[C@]12CCC(=O)C=C1CC[C@@H]1[C@@H]2[C@@H](O)C[C@@]2(C)[C@H]1CC[C@]2(O)C(=O)CO [hydrocortisone]
adverse reactions (irritant dermatitis) (human subject [5]; 0.5% hydrocortisone guanfacine patches): variable
adverse reactions (irritant dermatitis) (human subject [5]; 2.0% hydrocortisone guanfacine patches): No adverse reactions
